Experimental data: PMC4206749 (Toxicological Research, 2014)
Marks after values point to notes of the source that are not given here. Values belong to the compound of their own block, whether it stands above or below them.

Tests used:
[1] = system: Salmonella typhimurium strain TA1537; experiment: Bacterial reverse mutation assay; format: cell-based
[2] = system: Salmonella typhimurium strain TA98; experiment: Bacterial reverse mutation assay; format: cell-based
[3] = system: Escherichia coli strain (WP2 uvrA); experiment: Bacterial reverse mutation assay; format: cell-based; conditions: E. coli
[4] = system: Salmonella typhimurium strain TA1535; experiment: Bacterial reverse mutation assay; format: cell-based
[5] = system: Salmonella typhimurium strain TA100; experiment: Bacterial reverse mutation assay; format: cell-based
[6] = system: L5178Y Tk^+/− mouse lymphoma cells; experiment: In vitro comet assay; format: cell-based; conditions: for % DNA in tail / Olive moment / Tail length / Tail moment: 4 hr; for Comet parameters compared to vehicle: p < 0.05
[7] = system: CHL cells (Chinese hamster lung fibroblast cell line); experiment: In vitro chromosomal aberration assay; format: cell-based
[8] = system: S. typhimurium strain TA100 and TA98, E. coli strain WP2uvrA; conditions: presence and absence of the S9 mix, 0.02~5000 μg per plate; cited from earlier work
[9] = positive control 35 μg/ml with S9 mix
[10] = positive control 10 μg/ml, with metabolic activation, short term treatment
[11] = positive control 15 μg/ml without S9 mix

SMILES: Nc1ccc2cc3ccccc3cc2c1 [2-AA, 2-aminoanthracene, reference compound]
- Number of reverse mutants/plate (Mean ± SD) ([1]; TA1537, with S9 activation, positive control 2.0 μg/plate): 118 ± 16 reverse mutants/plate
- Number of reverse mutants/plate (Mean ± SD) ([2]; TA98, with S9 activation, positive control 0.5 μg/plate): 232 ± 9 reverse mutants/plate
- Number of reverse mutants/plate (Mean ± SD) ([3]; with S9 activation, positive control 10 μg/plate): 428 ± 21 reverse mutants/plate
- Number of reverse mutants/plate (Mean ± SD) ([4]; TA1535, with S9 activation, positive control 2.0 μg/plate): 156 ± 6 reverse mutants/plate
- Number of reverse mutants/plate (Mean ± SD) ([5]; TA100, with S9 activation, positive control 1.0 μg/plate): 598 ± 20 reverse mutants/plate

SMILES: Nc1c2ccccc2nc2ccccc12 [9-AA, 9-aminoacridine, reference compound]
- Number of reverse mutants/plate (Mean ± SD) ([1]; TA1537, without S9 activation, positive control 80 μg/plate): 151 ± 11 reverse mutants/plate

SMILES: NC(=O)C(=Cc1ccc([N+](=O)[O-])o1)c1ccco1 [AF-2, 2-(2-furyl)-3-(5-nitro-2-furyl) acrylamide, reference compound]
- Number of reverse mutants/plate (Mean ± SD) ([2]; TA98, without S9 activation, positive control 0.1 μg/plate): 278 ± 20 reverse mutants/plate
- Number of reverse mutants/plate (Mean ± SD) ([3]; without S9 activation, positive control 0.01 μg/plate): 334 ± 23 reverse mutants/plate
- Number of reverse mutants/plate (Mean ± SD) ([5]; TA100, without S9 activation, positive control 0.01 μg/plate): 425 ± 23 reverse mutants/plate

SMILES: c1ccc2c(c1)cc1ccc3cccc4ccc2c1c34 [BaP, benzo(A)pryene, reference compound]
- % DNA in tail [6, 9]: 49.14 ± 3.29 %
- Olive moment [6, 9]: 13.74 ± 1.97 μm
- Tail length [6, 9]: 80.29 ± 6.24 μm
- Tail moment [6, 9]: 42.15 ± 3.98 μm
- Comet parameters compared to vehicle ([6]; positive control with S9 mix): increased significantly

SMILES: O=P1(N(CCCl)CCCl)NCCCO1 (stereo not shown) [CPA, cyclophosphamide, reference compound]
- Total frequency (+) Gap [7, 10]: 132** %
- Total frequency (−) Gap [7, 10]: 116** %
- Frequency of cells with chromosomal aberration ([7]; positive control, treatment with metabolic activation): > 10%

- Gap ([7]; positive control 0.5 μg/ml, continuous treatment, 200 cells): 8
SMILES: CO[C@@]12[C@H](COC(N)=O)C3=C(C(=O)C(C)=C(N)C3=O)N1C[C@@H]1N[C@@H]12 [MMC, mitomycin C, reference compound]

SMILES: COS(C)(=O)=O [MMS, methyl methansulfonate, reference compound]
- % DNA in tail [6, 11]: 51.29 ± 4.26 %
- Olive moment [6, 11]: 14.68 ± 1.01 μm
- Tail length [6, 11]: 97.21 ± 6.75 μm
- Tail moment [6, 11]: 58.13 ± 6.12 μm
- Comet parameters compared to vehicle ([6]; positive control without S9 mix): increased significantly

SMILES: [N-]=[N+]=[N-].[Na+] [NaN3, sodium azide, reference compound]
- Number of reverse mutants/plate (Mean ± SD) ([4]; TA1535, without S9 activation, positive control 0.5 μg/plate): 151 ± 17 reverse mutants/plate

SMILES: Oc1ccc(/C=C/c2cc(O)cc(O)c2)cc1 [Resveratrol]
- Bacterial reverse mutation assay result [8]: negative
